# Data as given in patent US20110065760A1, “COMPOUNDS FOR THE INHIBITION OF ROTAMASES AND USE THEREOF” (Jerini AG, priority 2002, published 2011).
# Assays:
# [1] = target: hPin1 (Homo sapiens, UniProt Q13526); assay: protease-coupled PPIase assay, hPin1; format: biochemical; details: 6 nM hPin1, substrate Ac-Ala-Ala-Ser(PO3H2)-Pro-Arg-pNA, trypsin, pH 7.8, 6° C.; read-out: IC50 class, Target T-1 (hPin1)
# [2] = target: LpCyp18 (Legionella pneumophila, UniProt Q5ZRZ4); assay: biochemical; details: IC50 class, Target T-4 (LpCyp18)
# Chain of LpCyp18 (Q5ZRZ4 1-164): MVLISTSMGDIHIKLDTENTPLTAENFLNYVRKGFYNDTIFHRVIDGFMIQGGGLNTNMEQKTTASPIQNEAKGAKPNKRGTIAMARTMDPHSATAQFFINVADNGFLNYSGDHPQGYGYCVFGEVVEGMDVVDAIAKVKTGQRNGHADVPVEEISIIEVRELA
# [3] = target: EcParvulin (Escherichia coli, UniProt P0A9L5); assay: protease-coupled PPIase assay, EcParvulin; format: biochemical
# Chain of EcParvulin (P0A9L5 whole entry): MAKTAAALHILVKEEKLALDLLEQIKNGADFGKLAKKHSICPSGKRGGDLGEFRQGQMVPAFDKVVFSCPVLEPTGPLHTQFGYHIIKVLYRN
# [4] = target: T1, Trypsin (UniProt P00760); assay: trypsin assay; format: biochemical; details: 0.1 μg/ml trypsin, 120 μM Ac-Ala-Ala-Ser(PO3H2)-Pro-Arg-pNA, pH 7.8, 30° C., 30 min incubation; read-out: IC50 class, Target T-7 (Trypsin)
# T1 sequence (P00760 1-246): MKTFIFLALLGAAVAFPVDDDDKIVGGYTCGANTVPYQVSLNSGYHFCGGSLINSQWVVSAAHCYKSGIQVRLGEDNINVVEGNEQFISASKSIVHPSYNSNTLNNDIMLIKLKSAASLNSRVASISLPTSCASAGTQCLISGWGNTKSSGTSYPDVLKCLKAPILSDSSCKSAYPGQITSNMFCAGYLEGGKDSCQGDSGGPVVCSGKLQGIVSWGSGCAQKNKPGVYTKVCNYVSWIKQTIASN
# Description: In order to investigate the impact of some of the inventive compounds on the activity of key proteases the following assay was performed: Protease activities were measured spectrophotometrically at 30° C. according to Schomburg and Salzmann (Schomburg, B.; Salzmann M. GBF: Enzyme Handbook. Springer Verlag, Berlin Heidelberg, 1991) and Bergmeyer et al. (Bergmeyer, H. U.; Bergmeyer, J.; Graβl, M. Methods of Enzymatic Analysis, Vol. V Enzymes 3: Peptides, Proteinases and Their Inhibitors. pp 55-371, VCH, Weinheim, 1988). The release of 4-nitroaniline was determined at 390 nm with a Spectramax Plus UV/Vis spectrophotometer (Molecular Devices). The cathepsin B assay was performed in a reaction mixture containing 0.2 μg/ml cathepsin B, 2 mM Z-Arg-Arg-pNA in 88 mM KH2PO4, 12 mM Na2HPO4, 1.33 mM EDTA, 0.03% Brij 35 (pH 5.8). The trypsin assay was carried out in a reaction mixture containing 0.1 μg/ml trypsin and 120 μM Ac-Ala-Ala-Ser(PO3H2)-Pro-Arg-pNA in 35 mM HEPES (pH 7.8) and the papain assay in a mixture consisting of 16 μg/ml papain and 2 mM Bz-DL-Arg-pNA in 10 mM Na2HPO4, 2 mM L-Cys, 5 mM EDTA (pH 6.5). In general, reactions were started by addition of peptide substrate after a 30 min incubation of 1-100 μM effector with given concentrations of enzyme.
# [5] = WST-1 cytotoxicity assay, HL-60; format: cell-based; details: human, HL-60 cells (acute myeloid leukemia); WST-1, 48 h incubation; read-out: EC50 class, cytotoxic effect, CL-1 (HL-60)
# Procedure, shortened: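 Human tumour cell lines in culture were exposed to compounds at 37° C for 48 h, then given WST-1. Viability was read as formazan absorbance at (450 vs. 620) nm.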
# [6] = WST-1 cytotoxicity assay, PC-3; format: cell-based; details: human, PC-3 cells (prostate carcinoma); WST-1, 48 h incubation; read-out: EC50 class, cytotoxic effect, CL-3 (PC-3)
# Description: (§1) For this cytotoxic evaluation of the compounds the commercial available WST-1 assay (Roche) was used according to the manufacturer's instructions. The assay is based on the cleavage of the tetrazolium salt WST-1 by mitochondrial dehydrogenases found in viable cells. In general compounds were added to cells cultured in 96-well plates at 37° C. After 48 h of incubation 10 μl of WST-1 solution was added. The formazan dye was analyzed with an ELISA plate reader at (450 vs. 620) nm. CL-1: human acute myeloid leukemia, HL-60 CL-2: human cervix carcinoma, HeLa CL-3: human prostate carcinoma, PC-3 CL-4: human colon adenocarcinoma, Caco-2 CL-5: human breast adenocarcinoma, MCF-7
# [7] = WST-1 cytotoxicity assay, Caco-2; format: cell-based; details: human, Caco-2 cells (colon adenocarcinoma); WST-1, 48 h incubation; read-out: EC50 class, cytotoxic effect, CL-4 (Caco-2)
# Description: as §1
# [8] = test system: HL-60 cells; assay: FACS measurements and TUNEL assay (Apo-Direct kit); format: cell-based, human; details: FIG. 2
# Text: Enari M. Sakahira H. Yokoyama H. Okawa K. Iwamatsu A. Nagata S. A caspase-activated DNase that degrades DNA during apoptosis, and its inhibitor ICAD [erratum appears in Nature 1998 May 28; 393(6683):396.]. Nature. 391:43-50, 1998 • Darzynkiewicz Z. Juan G. Li X. Gorczyca W. Murakami T. Traganos F. Cytometry in cell necrobiology: analysis of apoptosis and accidental cell death (necrosis). Cytometry. 27:1-20, 1997
# Apoptotic HL-60 cells were detected by FACS analysis of FITC-dUTP-labelled DNA breaks using the Apo-Direct kit (BD-Pharmingen) according to the manufacturer's protocol.
# [9] = test system: tumor cell lines (HL-60, HeLa, PC-3, Caco-2, MCF-7); assay: WST-1 cytotoxicity assay, tumor cell lines (panel statement); format: cell-based, human; details: WST-1, 48 h; table 4
# Description: as §1
# [10] = test system: cyclin D1 in MCF-7 and HeLa cells; assay: Cyclin D1 down regulation (western blot marker analysis); format: cell-based, human
# Description: MCF-7 (5×10^5 cells/well) and HeLa cells (1.5×10^5 cells/well) were seeded in 6-well plates and incubated at 37° C. over night. Compounds or DMSO (final solvent concentration 0.1%) were added to the cells and incubated for different times as indicated. Subsequently, cells were lysed in RIPA buffer for 30 min on ice and centrifuged for 20 min at 4° C. After addition of electrophoresis sample buffer (4×) and 50 mM DTT to the supernatant, samples were boiled for 4 min at 95° C. Samples (equivalent to 2×10^5 cells/well) were run on a 15% SDS gel followed by blotting onto PVDF membrane.
# The membrane was blocked for 1 h in 10 mM Tris (pH 7.5), 100 mM NaCl, 0.1% Tween-20 and 5% non-fat dry milk (blocking buffer) and incubated for 1 h with mouse anti-hCyclin D1 monoclonal antibody (clone DCS-6, BD Biosciences) diluted to 1 μg/ml in blocking buffer. Blots were washed 3×10 min with 10 mM Tris (pH 7.5), 100 mM NaCl, 0.1% Tween-20 (washing buffer) and incubated with 0.7 μg/ml peroxidase-conjugated sheep anti-mouse IgG (Sigma) in blocking buffer for 1 h. After washing 3×10 min with washing buffer, the plot was developed with the ECL+ detection kit (Amersham Biosciences).
# Chain of hPin1 (Q13526 whole entry): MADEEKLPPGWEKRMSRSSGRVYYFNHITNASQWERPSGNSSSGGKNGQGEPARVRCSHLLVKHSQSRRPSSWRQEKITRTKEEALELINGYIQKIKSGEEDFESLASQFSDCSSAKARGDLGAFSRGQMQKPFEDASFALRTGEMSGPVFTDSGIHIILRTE
compound,measurement,setting,value
Cc1c(Cl)cc(NC(=O)NC(C)(C)CC(C)(C)C)c(O)c1Cl [Compound 102],IC50,[1],1 to 10 µM
same,IC50,[2],10 to 50 µM
same,IC50,[3],1 to 10 µM
same,IC50,[4],10 to 50 µM
same,EC50 at 48 h,[5],< 10 µM
same,EC50 at 48 h,[6],< 10 µM
same,EC50 at 48 h,[7],< 10 µM
same,induction of apoptosis (FACS analysis of FITC-dUTP-labelled DNA breaks),[8],induce apoptosis
same,cytotoxic effect on the tumor cell lines tested,[9],particular relevance
same,cyclin D1 down regulation,[10],particular relevance
